Calls of active or inactive are those of the source. No cut-off for these calls is given here.
Assays:
[1] = target: T1, Uracil nucleotide/cysteinyl leukotriene receptor (Homo sapiens, UniProt Q13304); test: Agonist activity at human GPR17 receptor transfected in 1321N1 astrocytoma cells assessed as induction of intracellular calcium mobilization by fluorimetric assay; type: functional, cell-based
[2] = target: T1, Uracil nucleotide/cysteinyl leukotriene receptor; test: Antagonist activity at human GPR17 receptor transfected in 1321N1 astrocytoma cells assessed as intracellular calcium mobilization by flurometric assay; type: functional, cell-based

T1 sequence (Q13304 whole entry): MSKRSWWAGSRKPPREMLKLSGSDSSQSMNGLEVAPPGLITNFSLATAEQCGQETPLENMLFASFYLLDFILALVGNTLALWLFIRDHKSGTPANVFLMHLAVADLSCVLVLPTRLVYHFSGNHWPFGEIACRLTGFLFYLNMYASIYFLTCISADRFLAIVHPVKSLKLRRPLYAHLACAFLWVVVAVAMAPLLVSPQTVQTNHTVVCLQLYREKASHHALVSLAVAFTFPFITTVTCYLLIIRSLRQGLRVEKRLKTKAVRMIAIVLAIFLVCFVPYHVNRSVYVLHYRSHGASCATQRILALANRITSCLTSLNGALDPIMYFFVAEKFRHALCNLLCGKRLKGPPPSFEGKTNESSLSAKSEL

O=C(O)CCc1c(C(=O)O)[nH]c2cc(Cl)c(F)c(Cl)c12
EC50 [1]: 52 µM

O=C(O)CCc1c(C(=O)O)[nH]c2cc(Br)cc(Br)c12
EC50 [1]: 0.202 µM

COc1cc(OC)c2c(CCC(=O)O)c(C(=O)O)[nH]c2c1
EC50 [1]: > 100 µM
Activity [2]: inactive

O=C(O)CCc1c(C(=O)O)[nH]c2cc(Br)ccc12
EC50 [1]: 2.24 µM

O=C(O)CCc1c(C(=O)O)[nH]c2cc(Cl)cc(Cl)c12
EC50 [1]: 0.331 µM

O=C(O)CCc1c(C(=O)O)[nH]c2cccc(Br)c12
EC50 [1]: 45.5 µM

O=C(O)CCc1c(C(=O)O)[nH]c2cccc(I)c12
EC50 [1]: 36.8 µM

O=C(O)CCc1c(C(=O)O)[nH]c2cc(C(F)(F)F)cc(C(F)(F)F)c12
EC50 [1]: 17.1 µM

Source: ChEMBL document CHEMBL3132791, “Improved synthesis of 4-/6-substituted 2-carboxy-1H-indole-3-propionic acid derivatives and structureactivity relationships as GPR17 agonists” (Medchemcomm, 2014)
